The target of this assay is T1, Full-length USP19 (Homo sapiens, UniProt O94966).
T1 construct: Full-length USP19 was purchased from Boston Biochem (E-576); purchased Boston Biochem E-576
T1 sequence (O94966 1-1318): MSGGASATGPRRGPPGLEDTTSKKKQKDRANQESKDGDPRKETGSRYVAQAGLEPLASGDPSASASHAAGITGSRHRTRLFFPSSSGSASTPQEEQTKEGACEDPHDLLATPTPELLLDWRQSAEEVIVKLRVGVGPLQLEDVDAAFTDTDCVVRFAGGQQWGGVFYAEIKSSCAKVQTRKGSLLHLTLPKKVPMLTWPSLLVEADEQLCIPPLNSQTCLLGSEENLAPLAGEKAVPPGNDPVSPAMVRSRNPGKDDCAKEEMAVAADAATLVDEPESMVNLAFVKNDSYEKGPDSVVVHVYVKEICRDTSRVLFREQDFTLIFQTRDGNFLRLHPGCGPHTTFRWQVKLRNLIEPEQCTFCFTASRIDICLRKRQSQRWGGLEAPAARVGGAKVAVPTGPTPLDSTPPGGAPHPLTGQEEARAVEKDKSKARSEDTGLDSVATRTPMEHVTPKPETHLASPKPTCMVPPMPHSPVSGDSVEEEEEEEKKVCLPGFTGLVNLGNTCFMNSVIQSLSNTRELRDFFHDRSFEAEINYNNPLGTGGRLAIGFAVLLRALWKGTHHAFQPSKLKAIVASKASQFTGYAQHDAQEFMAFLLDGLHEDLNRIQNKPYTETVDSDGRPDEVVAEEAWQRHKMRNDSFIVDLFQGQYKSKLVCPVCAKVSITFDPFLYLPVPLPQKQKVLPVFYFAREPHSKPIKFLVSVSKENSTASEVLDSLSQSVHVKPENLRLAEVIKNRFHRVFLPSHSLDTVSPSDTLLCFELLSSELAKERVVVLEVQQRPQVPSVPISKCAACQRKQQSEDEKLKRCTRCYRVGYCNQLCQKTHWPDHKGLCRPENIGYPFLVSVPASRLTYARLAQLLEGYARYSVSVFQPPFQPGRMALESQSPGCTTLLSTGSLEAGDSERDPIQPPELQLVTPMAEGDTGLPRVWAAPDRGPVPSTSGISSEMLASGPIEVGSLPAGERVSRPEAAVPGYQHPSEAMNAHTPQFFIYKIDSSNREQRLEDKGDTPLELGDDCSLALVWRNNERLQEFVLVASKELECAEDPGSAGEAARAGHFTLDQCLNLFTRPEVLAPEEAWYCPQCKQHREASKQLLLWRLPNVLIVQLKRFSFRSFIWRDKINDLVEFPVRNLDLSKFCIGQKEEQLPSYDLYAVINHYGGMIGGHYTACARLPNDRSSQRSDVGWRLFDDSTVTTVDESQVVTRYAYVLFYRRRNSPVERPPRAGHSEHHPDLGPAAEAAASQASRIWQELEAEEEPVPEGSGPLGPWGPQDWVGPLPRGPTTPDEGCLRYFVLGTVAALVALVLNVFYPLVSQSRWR
Description: USP19 fluorescence polarisation (FP) assay, Ubiquitin-Lys-TAMRA substrate. The assay is classed as biochemical. As to conditions: average of at least two duplicate experiments. In outline: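 Fluorescence polarisation (excitation 530 nm, parallel and perpendicular emission at 575 nm) was recorded every 15 min for 90 min after adding the ubiquitin-Lys-TAMRA isopeptide (500 nM as dispensed). Beforehand, the full-length enzyme (2.5 nM as dispensed) sat 30 min at RT with compound diluted from 200 μM to 2 μM in HEPES pH 7.4 buffer with 150 mM NaCl, 5 mM DTT, 0.05% BSA and 0.05% CHAPS. Values normalised to uninhibited wells gave IC50s by non-linear fitting, each the mean of two or more duplicate runs.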
On the technique in general: In fluorescence polarisation assays a small probe gives low polarisation when free and higher when bound to something large.

Counter-ions that a name gives are not always drawn.

As to `N[C@@H]1CCN(C(=O)N2CCC(Cn3cnc4ccc(F)cc4c3=O)C3(CCCC3)C2)[C@H](c2ccccc2)C1` (stereo partly drawn) [Example 27, 3-((7-((2S,4R)-4-Amino-2-phenylpiperidine-1-carbonyl)-7-azaspiro[4.5]decan-10-yl)methyl)-6-fluoroquinazolin-4(3H)-one], the IC50 is less than 0.01 µM.
For the compound `CC1(C)CN(C(=O)N2CCNC[C@H]2c2ccccc2)CCC1Cn1cnc(-c2ccccc2)cc1=O` (stereo partly drawn) [Example 18, 3-((33-Dimethyl-1-((R)-2-phenylpiperazine-1-carbonyl)piperidin-4-yl)methyl)-6-phenylpyrimidin-4(3H)-one], the half-inhibitory concentration (IC50) lay within 0.01 to 0.1 µM.
Turning to `CN[C@@H]1CCN(C(=O)N2CC[C@@H](Cn3cnc(-c4ccccc4OC)cc3=O)C3(CCCC3)C2)[C@H](c2cc(F)ccc2F)C1` [Example 99, 3-(((R)-7-((2S,4R)-2-(2,5-Difluorophenyl)-4-(methylamino)piperidine-1-carbonyl)-7-azaspiro[4.5]decan-10-yl)methyl)-6-(2-methoxyphenyl)pyrimidin-4(3H)-one], the concentration for half-maximal inhibition (IC50) is less than 0.01 µM.
Take `CNC(=O)[C@@H]1CCN(C(=O)N2CC[C@@H](Cn3cnc(-c4ccccc4)cc3=O)C3(CCCC3)C2)[C@H](c2ccccc2)C1` [Example 176, (2S,4R)-N-Methyl-1-((R)-10-((6-oxo-4-phenylpyrimidin-1(6H)-yl)methyl)-7-azaspiro[4.5]decane-7-carbonyl)-2-phenylpiperidine-4-carboxamide]: the IC50 is 0.1 to 1 µM.
Then `CN[C@@H]1CCN(C(=O)N2CCC(Cn3cnc(-c4ccccc4)cc3=O)CC2)[C@H](c2cccc(F)c2)C1` [Example 74, 3-((1-((2S,4R)-2-(3-Fluorophenyl)-4-(methylamino)piperidine-1-carbonyl)piperidin-4-yl)methyl)-6-phenylpyrimidin-4(3H)-one], with less than 0.01 µM; and `COc1ccccc1-c1cc(=O)n(C[C@]2(OC)CCN(C(=O)N3CC[C@@H](NC(C)C)C[C@H]3c3cc(F)ccc3F)CC23CCCC3)cn1` [Example 190, 3-(((S)-7-((2S,4R)-2-(2,5-Difluorophenyl)-4-(isopropylamino)piperidine-1-carbonyl)-10-methoxy-7-azaspiro[4.5]decan-10-yl)methyl)-6-(2-methoxyphenyl)pyrimidin-4(3H)-one], with less than 0.01 µM.
In the case of `O=C(N1CC[C@@H](Cn2cnc(-c3ccccc3)cc2=O)C2(CCCC2)C1)N1CC[C@@H](NC2CC(F)(F)C2)C[C@H]1c1ccccc1` [Example 135, 3-(((R)-7-((2S,4R)-4-((3,3-Difluorocyclobutyl)amino)-2-phenylpiperidine-1-carbonyl)-7-azaspiro[4.5]decan-10-yl)methyl)-6-phenylpyrimidin-4(3H)-one], the concentration for half-maximal inhibition (IC50) was less than 0.01 µM.
The figure for `O=C(N1CC[C@@H](Cn2ccc(-c3ccccc3)cc2=O)C2(CCCC2)C1)N1CCNC[C@H]1c1ccccc1` (single isomer, unassigned) [Example 16] is less than 0.01 µM; for `CCN[C@@H]1CCN(C(=O)N2CCC(Cn3cnc(-c4ccccc4)cc3=O)CC2)[C@H](c2ccccc2)C1` [Example 75, 3-((1-((2S,4R)-4-(Ethylamino)-2-phenylpiperidine-1-carbonyl)piperidin-4-yl)methyl)-6-phenylpyrimidin-4(3H)-one] it is 0.01 to 0.1 µM; for `CN[C@@H]1CCN(C(=O)N2CC[C@@H](Cn3cnc(-c4ccccc4C)cc3=O)C3(CCCC3)C2)[C@H](c2cc(F)ccc2F)C1` [Example 114, 3-(((R)-7-((2S,4R)-2-(2,5-Difluorophenyl)-4-(methylamino)piperidine-1-carbonyl)-7-azaspiro[4.5]decan-10-yl)methyl)-6-(o-tolyl)pyrimidin-4(3H)-one] it is less than 0.01 µM.
As to `CC(=O)N[C@@H]1CCN(C(=O)N2CC[C@@H](Cn3ccc(-c4ccccc4)cc3=O)C3(CCCC3)C2)[C@H](c2ccccc2)C1` [Example 93, N-((2S,4R)-1-((R)-10-((2-Oxo-4-phenylpyridin-1(2H)-yl)methyl)-7-azaspiro[4.5]decane-7-carbonyl)-2-phenylpiperidin-4-yl)acetamide], the IC50 was 0.01 to 0.1 µM.
As to `COc1ccccc1-c1cc(=O)n(C[C@@H]2CCN(C(=O)N3CC[C@@H](NCC(F)F)C[C@H]3c3cc(F)ccc3F)CC23CCCC3)cn1` [Example 134, 3-(((R)-7-((2S,4R)-4-((2,2-Difluoroethyl)amino)-2-(2,5-difluorophenyl)piperidine-1-carbonyl)-7-azaspiro[4.5]decan-10-yl)methyl)-6-(2-methoxyphenyl)pyrimidin-4(3H)-one], the IC50 was less than 0.01 µM.
Regarding `O=C(N1CC[C@@H](Cn2cnc3ccc(F)cc3c2=O)C2(CCCC2)C1)N1CC[C@@H](NCC(F)F)C[C@H]1c1cc(F)ccc1F` [Example 157, 3-(((R)-7-((2S,4R)-4-((2,2-Difluoroethyl)amino)-2-(2,5-difluorophenyl)piperidine-1-carbonyl)-7-azaspiro[4.5]decan-10-yl)methyl)-6-fluoroquinazolin-4(3H)-one], the IC50 is less than 0.01 µM.
For the compound `CSc1ncc2c(=O)n(CC3CCN(C(=O)N4CC[C@@H](N)C[C@H]4c4ccccc4)CC34CCCC4)ccc2n1` (stereo partly drawn) [Example 40, 6-((7-((2S,4R)-4-Amino-2-phenylpiperidine-1-carbonyl)-7-azaspiro[4.5]decan-10-yl)methyl)-2-(methylthio)pyrido [4,3-d]pyrimidin-5(6H)-one], the IC50 is less than 0.01 µM.
Consider `CN[C@@H]1CCN(C(=O)N2CC[C@@H](Cn3cnc(-c4ccccc4F)cc3=O)C3(CCCC3)C2)[C@H](c2ccccc2)C1` [Example 109, 6-(2-Fluorophenyl)-3-(((R)-7-((2S,4R)-4-(methylamino)-2-phenylpiperidine-1-carbonyl)-7-azaspiro[4.5]decan-10-yl)methyl)pyrimidin-4(3H)-one], for which the half-inhibitory concentration (IC50) is less than 0.01 µM.
For `O=C(N1CC[C@H](Cn2ccc(-c3ccccc3)cc2=O)C2(CCCC2)C1)N1CCNC[C@H]1c1ccccc1` (single isomer, unassigned) [Example 15], the IC50 is 1 to 20 µM.
Turning to `C[C@@]1(O)CCN(C(=O)N2CC[C@@H](Cn3ccc(-c4ccccc4)cc3=O)C3(CCCC3)C2)[C@H](c2ccccc2)C1` [Example 52, 1-(((R)-7-((2S,4R)-4-Hydroxy-4-methyl-2-phenylpiperidine-1-carbonyl)-7-azaspiro[4.5]decan-10-yl)methyl)-4-phenylpyridin-2(1H)-one], the IC50 lay in the range of 0.1 to 1 µM.
With `O=C(N1CC[C@@H](Cn2cnc3ccc(F)cc3c2=O)C2(CCCC2)C1)N1CC[C@@H](N2CCOCC2)C[C@H]1c1ccccc1` [Example 171, 6-Fluoro-3-(((R)-7-((2S,4R)-4-morpholino-2-phenylpiperidine-1-carbonyl)-7-azaspiro[4.5]decan-10-yl)methyl)quinazolin-4(3H)-one hydrochloride], the IC50 was in the range of 0.1 to 1 µM.
`CN[C@@H]1CCN(C(=O)N2CC[C@@H](Cn3ncccc3=O)C3(CCCC3)C2)[C@H](c2ccc(F)cc2F)C1` [Example 129, 2-(((R)-7-((2S,4R)-2-(2,4-Difluorophenyl)-4-(methylamino)piperidine-1-carbonyl)-7-azaspiro[4.5]decan-10-yl)methyl)pyridazin-3(2H)-one]: the IC50 was 0.01 to 0.1 µM.
For `Cc1cc(=O)n(CC2CCN(C(=O)N3CC[C@@H](N)C[C@H]3c3ccccc3)CC23CCCC3)cn1` (stereo partly drawn) [Example 32, 3-((7-((2S,4R)-4-Amino-2-phenylpiperidine-1-carbonyl)-7-azaspiro[4.5]decan-10-yl)methyl)-6-methylpyrimidin-4(3H)-one], the half-inhibitory concentration (IC50) lay in the range of 0.01 to 0.1 µM.
The figure for `CN[C@@H]1CCN(C(=O)N2CC[C@@H](Cn3ccc(-c4ccccc4)cc3=O)C3(CCCC3)C2)[C@H](c2cc(F)ccc2F)C1` [Example 91, 1-(((R)-7-((2S,4R)-2-(2,5-Difluorophenyl)-4-(methylamino)piperidine-1-carbonyl)-7-azaspiro[4.5]decan-10-yl)methyl)-4-phenylpyridin-2(1H)-one] is less than 0.01 µM.

What is called IC50 is the concentration needed to halve the response being measured.

The record behind these values is patent publication US20240327382A1 (ALMAC DISCOVERY LIMITED, priority 2021, published 2024).
